# Assay results reported in patent publication US7781444B2, “Pharmaceutical composition for treating fecal incontinence and anal itch” (S.L.A. Pharma AG, priority 1996, dated 2010).
# Experiments:
# [1] = test system: internal anal pressure, patients with incontinence or constipation; assay: NΩ-Nitro-L-arginine ointment in and around the anal canal, manometry before and after application; format: in vivo, human; details: 1% ointment, twelve patients
# Method: A 1% ointment was prepared by mixing […] of NΩ-Nitro-L-arginine (obtained from Fluka—part of the Sigma group) in 19.8 g of unguentum merk base.
# The ointment was then applied in and around the anal canal of twelve patients and the interanal pressure measured by manometry (as discussed previously) before and shortly after application of the ointment.
# [2] = test system: patients with ileo-anal pouch and fecal incontinence; assay: Randomised placebo controlled cross over trial of 10% phenylephrine cream in patients with ileo-anal pouch; format: in vivo, human
# Method: A prospective randomised placebo controlled cross over trial was undertaken to evaluate the use of phenylephrine 10% topical cream (according to examples 2a and 3) for treatment of fecal incontinence in patients with ilco-anal pouch.
# 10 Patients are mainly troubled by nocturnal incontinence only, and 2 have both daytime and nocturnal incontinence.
# Of the 10 completed studies, there were 7 women and 3 men, age range (34-67). Anorectal manometry was performed and laser doppler fowmetry on all patients. Incontinence score was determined. All these outcome measures were repeated after treatment with both trial creams (phenylephrine and placebo).
# [3] = test system: resting anal sphincter pressure, human volunteers; assay: Topical phenylephrine gel dose ranging in volunteers: resting anal sphincter pressure and anodermal blood flow; format: in vivo; details: for rise in mean resting anal sphincter pressure (MRP): topical, twelve volunteers
# Method: A composition of base gel had the following composition: carmellose sodium 6 g, polyethylene glycol 30 ml, methylhydroxybenzoate 150 mg, propylhydroxybenzoate 15 mg, made up to volume with distilled water (pH4).
# Various amounts of phenylephrine was added at 5%, 10%, 20% and 30% w/w to form various compositions for dose ranging studies (FIG. 2).
# Twelve human volunteers aged 21 to 53 (mean 35) were studied on 4 occasions. Measurements of resting anal sphincter pressure and anodermal blood flow (using a laser doppler flowmeter) were taken before and after topical application of increasing concentrations of phenylephrine gel according to example 3 (supplied by Slaco Pharma (UK) Ltd) to the anus. Readings were taken through the day after a single application in order to determine the duration of effect.
# [4] = test system: patients with idiopathic passive fecal incontinence; assay: Randomised placebo controlled cross over trial of 10% phenylephrine cream in idiopathic passive fecal incontinence; format: in vivo, human
# Method: A prospective randomised placebo controlled cross over trial was undertaken to evaluate the use of 10% phenylephrine topical cream (according to examples 3 and 4) for treatment of idiopathic passive fecal incontinence.
# 30 Patients completed the study. All patients were assessed by endoanal ultrasound as well as anorectal physiology (to determine maximum resting anal pressure) and laser doppler flowmetry prior to treatment. The latter two measurements are repeated after a 3 week trial of the active agent (phenylephrine 10%) and placebo ‘Incontinence scores’ are determined before and after each treatment.
# [5] = test system: maximum resting anal pressure, healthy volunteers; assay: Healthy volunteer group, intraanal 10% phenylephrine, manometry; details: 0.5 ml 10% (50 mg) intraanal
# [6] = test system: maximum resting anal pressure, single healthy volunteer; assay: Dose response study in single volunteer, intraanal phenylephrine solution, manometry
# [7] = test system: anal resting pressure; assay: Phenylephrine ointment applied to anal margin, anal manometry; format: in vivo, human; details: ointment in yellow soft paraffin, up to approximately 500 mg 10% ointment (50 mg of phenylephrine)
# Method: Preparations of commercially available ophthalmic 10% phenylephrine hydrochloride (Minims) solution were administered intraanally with the subject in the left lateral position.
# [8] = test system: maximum resting anal pressure, patients with passive faecal incontinence; assay: Patient group with passive faecal incontinence, intraanal 10% phenylephrine, manometry
# [9] = test system: minor incontinence after ileoanal anastomosis; details: Surgery 1990; 107: p 311-315; cited from earlier work
# [10] = topical 10% phenylephrine cream
compound,measurement,setting,value
NC(=NCCC[C@H](N)C(=O)O)N[N+](=O)[O-] [NΩ-Nitro-L-arginine],effect on resting internal anal sphincter pressure (in words),[1],increase the resting internal an1 sphincter pressure
CNC[C@H](O)c1cccc(O)c1 [phenylephrine],patients with significant improvement of symptoms,"[2]; 6/10 patients, phenylephrine 10% compared to placebo",60%
same,improvement of incontinence scores (mean),"[2]; after phenylephrine 10%, 3% after placebo",45%
same,increase in mean resting anal sphincter pressure compared to baseline,"[2]; in the improved patients, after phenylephrine 10%, -8% on placebo, p<0.005",29%
same,differences in anodermal blood flow,[2]; laser doppler flowmetry,No differences
same,patients with objective improvement (anal sphincter pressure),[2]; of the 7 improved patients,6 patients
same,patients with no improvement,[2]; phenylephrine 10% cream,3/10
same,mean subjective improvement in symptoms reported by patients,"[2]; phenylephrine 10% cream, 14% after placebo, p<0.01",83%
same,"improvement of incontinence score, one patient",[2]; single patient without measurable pressure increase,47%
same,"subjective improvement, one patient","[2]; single patient, after phenylephrine compared to placebo",75%
same,"anal sphincter pressure, one patient","[2]; single patient, phenylephrine 10% cream",no measurable increase
same,patients with improvement of symptoms of incontinence (summary),[2]; [10],7/10
same,rise in mean resting anal sphincter pressure (MRP),"[3]; 5% phenylephrine gel, p 0.04",6%
same,duration of action of a single application (median),[3]; 10% phenylephrine gel,7 (range 6 to 8) hours
same,rise in mean resting anal sphincter pressure (MRP),"[3]; 10% phenylephrine gel, versus pre-treatment",33%
same,post treatment MRP,"[3]; 10% phenylephrine gel, pre-treatment 85±2, P<0.0001",127±12 cmH2O
same,response of MRP at concentrations higher than 10%,"[3]; higher concentrations of phenylephrine gel (20%, 30% w/w)",no additional response
same,changes in anodermal blood flow,"[3]; laser doppler flowmeter, topical phenylephrine gel",No notable changes
same,mean resting pressure post phenylephrine,"[4]; 10% phenylephrine, from 62 pre, no significant change",58 cmH2O
same,incontinence score (mean) after treatment,"[4]; 10% phenylephrine, improved from mean of 14",10
same,change in anodermal blood flow,"[4]; laser doppler flowmetry, after 10% phenylephrine",no significant change
same,patients with significant subjective improvement of symptoms,"[4]; three of 30 patients, 10% cream for 3 weeks, versus baseline and placebo",10%
same,patients with subjective improvement of symptoms (summary),[4]; [10],3/30
same,maximum resting pressure after application (median),"[5]; ten healthy volunteers, pre median 110, post range 120-210, 17.5 KPa, p<0.05",180 cm H2O
same,"time increased pressure was maintained (duration of the recording, median)",[5]; range 14-31 minutes,≥ 23 min
same,increase in maximum resting pressure,[6]; 0.5 ml 0.1% (0.5 mg) intraanal,no significant increase
same,increase in maximum resting pressure,[6]; 0.5 ml 0.5% (2.5 mg) intraanal,no significant increase
same,increase in maximum resting pressure,[6]; 0.5 ml 1% (5 mg) intraanal,no significant increase
same,increase in maximum resting pressure,[6]; 0.5 ml 5% (25 mg) intraanal,no significant increase
same,resting pressure after instillation,"[6]; 0.5 ml 10% (50 mg) into the anal canal, from 120 cm H2O before (12-21 KPa)",210 cm H2O
same,time over which increase in resting anal pressure was evident (continuous recording),[6]; 0.5 ml 10% (50 mg) intraanal,≥ 25 min
same,resting anal pressure 13 hours later,"[6]; 0.5 ml 10% (50 mg) intraanal, manometry repeated at 13 hours",returned to pre-treatment level
same,effect of ointment applied to the anal margin,[7],no effect
same,median maximum resting pressure after instillation,"[8]; 0.5 ml 10% (50 mg) intraanal, ten patients, pre median 25, post range 20-80, 5.5 KPa, p=0.39",55 cm H2O
same,patients demonstrating a rise in anal pressure,"[8]; of ten patients, two showed a fall, one no change",Seven
CCCC(CCC)C(=O)[O-].[Na+] [sodium valproate],treatment of minor incontinence after ileoanal anastomosis,[9],useful
